Results: patent US7994187B2, “HIV inhibiting 3,4-dihydro-imidazo[4,5-B]pyridin-5-ones” (Tibotec Pharmaceuticals Ltd., priority 2006, dated 2011)

What was measured:
[1] = test system: wild-type HIV-IIIB strain; assay: Anti-viral activity in cellular assay, MT4 LTR-EGFP cells (GFP fluorescence); assay type: cell-based, HIV-1; conditions: Human immunodeficiency virus 1, 72 h, pEC50 = -log10(EC50), measured three days after infection
Procedure: The compounds of the present invention were tested for anti-viral activity in a cellular assay, which was performed according to the following procedure.
The human T-cell line MT4 is engineered with Green Fluorescent Protein (GFP) and an HIV-specific promoter, HIV-1 long terminal repeat (LTR). This cell line is designated MT4 LTR-EGFP, and can be used for the in vitro evaluation of anti-HIV activity of investigational compounds. In HIV-1 infected cells, the Tat protein is produced which upregulates the LTR promotor and finally leads to stimulation of the GFP reporter production, allowing to measure ongoing HIV-infection fluorometrically.
(§1) Effective concentration values such as 50% effective concentration (EC50) can be determined and are usually expressed in μM. An EC50 value is defined as the concentration of test compound that reduces the fluorescence of HIV-infected cells by 50%. The 50% cytotoxic concentration (CC50 in μM) is defined as the concentration of test compound that reduces fluorescence of the mock-infected cells by 50%. The ratio of CC50 to EC50 is defined as the selectivity index (SI) and is an indication of the selectivity of the anti-HIV activity of the inhibitor. The ultimate monitoring of HIV-1 infection and cytotoxicity is done using a scanning microscope. Image analysis allows very sensitive detection of viral infection. Measurements are done before cell necrosis, which usually takes place about five days after infection, in particular measurements are performed three days after infection.
The following Table 6 lists pEC50 values against wild-type HIV-IIIB strain as well as pEC50 values for a selected number of compounds of the invention. A pEC50 value corresponds to −log10(EC50). Listed are compounds having a pEC50 value of at least 5.00.

[2] = Cytotoxicity in mock-infected MT4 CMV-EGFP cells (GFP fluorescence); assay type: cell-based; conditions: human, 50% cytotoxic concentration as negative log
From the text: Analogously, MT4 cells are engineered with GFP and the constitutional cytomegalovirus (CMV) promotor. This cell line is designated MT4 CMV-EGFP, and can be used for the in vitro evaluation of cytotoxicity of investigational compounds. In this cell line, GFP levels are comparably to those of infected MT4 LTR-EGFP cells. Cytotoxic investigational compounds reduce GFP levels of mock-infected MT4 CMV-EGFP cells.
as §1

For `O=c1c2ccccc2c2nc3ccccn3c2n1-c1ccc([N+](=O)[O-])cc1` [Compound 1, 6-(4-nitrophenyl)-pyrido[2′,1′:2,3]imidazo-[4,5-c]isoquinolin-5(6H)-one], the EC50 [1] was 355 nM and the CC50 at 3 days [2] was > 32400 nM.
With `O=c1c2ccccc2c2nc3cc(CO)ccn3c2n1-c1ccc([N+](=O)[O-])cc1` [Compound 9] the EC50 [1] was 724 nM and the CC50 at 3 days [2] was > 32400 nM.
With `O=c1c2ccccc2c2nc3ccc(O)cn3c2n1-c1ccc([N+](=O)[O-])cc1` [Compound 10, 9-hydroxy-6-(4-nitrophenyl)-pyrido[2′,1′:2,3]imidazo[4,5-c]isoquinolin-5(6H)-one] the EC50 [1] was 155 nM and the CC50 at 3 days [2] was > 32400 nM.
For `O=c1c2ccccc2c2nc3ccccn3c2n1-c1ccc(Cl)nc1` [Compound 18], the EC50 [1] was 8130 nM and the CC50 at 3 days [2] was > 32400 nM.
With `Cc1ccc(-n2c(=O)c3ccccc3c3nc4ccccn4c32)cn1` [Compound 19] the EC50 [1] was 8910 nM and the CC50 at 3 days [2] was > 32400 nM.
With `O=c1c2ccccc2c2nc3ccccn3c2n1-c1ccc(Br)nc1` [Compound 21, 6-(6-bromo-pyridin-3-yl)-pyrido-[2′,1′:2,3]imidazo[4,5-c]isoquinolin-5(6H)-one] the EC50 [1] was 4470 nM and the CC50 at 3 days [2] was > 32400 nM.
With `Cc1ccc(-n2c(=O)c3ccccc3c3nc4ccccn4c32)cc1[N+](=O)[O-]` [Compound 22] the EC50 [1] was 2880 nM and the CC50 at 3 days [2] was > 32400 nM.
Work on `CCc1ccc(-n2c(=O)c3ccccc3c3nc4ccccn4c32)cn1` [Compound 27, 6-(6-ethyl-pyridin-3-yl)-pyrido[2′,1′:2,3]imidazo[4,5-c]-isoquinolin-5(6H)-one] yielded an EC50 [1] of 5750 nM and a CC50 at 3 days [2] of 26300 nM.
In the case of `Nc1ccc2nc3c4ccccc4c(=O)n(-c4ccc(Cl)nc4)c3n2c1` [Compound 53, 9-amino-6-(6-chloro-pyridin-3-yl)-pyrido[2′,1′:2,3]imidazo-[4,5-c]isoquinolin-5(6H)-one], the EC50 [1] is reported as 1660 nM and the CC50 at 3 days [2] is reported as 4570 nM.
For `O=C(Nc1ccc2nc3c4ccccc4c(=O)n(-c4ccc(Cl)nc4)c3n2c1)C(F)(F)F` [Compound 61, N-[6-(6-chloro-pyridin-3-yl)-5,6-dihydro-5-oxo-pyrido[2′,1′:2,3]imidazo[4,5-c]isoquinolin-9-yl]-2,2,2-trifluoro-acetamide], the EC50 [1] was 2090 nM and the CC50 at 3 days [2] was > 32400 nM.
`O=c1c2ccccc2c2nc3ccc(NCCN4CCCC4)cn3c2n1-c1ccc([N+](=O)[O-])cc1` [Compound 67, 6-(4-nitrophenyl)-9-(2-pyrrolidin-1-yl-ethylamino)-pyrido[2′,1′:2,3]imidazo[4,5-c]isoquinolin-5(6H)-one] showed an EC50 [1] of 339 nM and a CC50 at 3 days [2] of 2630 nM.
In the case of `CN(C)CCN(C)c1ccc2nc3c4ccccc4c(=O)n(-c4ccc([N+](=O)[O-])cc4)c3n2c1` [Compound 68], the EC50 [1] is reported as 1230 nM and the CC50 at 3 days [2] is reported as 16600 nM.
For `O=CNc1ccc2nc3c4ccccc4c(=O)n(-c4ccc([N+](=O)[O-])cc4)c3n2c1` [Compound 70], the EC50 [1] was 603 nM and the CC50 at 3 days [2] was > 32400 nM.
With `O=c1c2ccccc2c2nc3ccc(OCCO)cn3c2n1-c1ccc([N+](=O)[O-])cc1` [Compound 74, 9-[2-hydroxy-ethoxy]-6-(4-nitrophenyl)-pyrido[2′,1′:2,3]imidazo[4,5-c]isoquinolin-5(6H)-one] the EC50 [1] was 871 nM and the CC50 at 3 days [2] was > 32400 nM.
With `O=c1c2ccccc2c2nc3ccc(OP(=O)(O)O)cn3c2n1-c1ccc([N+](=O)[O-])cc1` [Compound 76, phosphoric acid 5,6-dihydro-6-(4-nitrophenyl)-5-oxo-pyrido[2′,1′:2,3]imidazo[4,5-c]isoquinolin-9-yl ester] the EC50 [1] was 74.1 nM and the CC50 at 3 days [2] was > 32400 nM.
With `O=c1c2ccccc2c2nc3ccc(OP(=O)(O)O)cn3c2n1-c1ccc(Cl)nc1` [Compound 77] the EC50 [1] was 1120 nM and the CC50 at 3 days [2] was 25700 nM.
For `O=c1c2ccccc2c2nc3ccc(OCCN4CCCC4)cn3c2n1-c1ccc([N+](=O)[O-])cc1` [Compound 78], the EC50 [1] was 3020 nM and the CC50 at 3 days [2] was > 32400 nM.
For `CN(C)CCOc1ccc2nc3c4ccccc4c(=O)n(-c4ccc([N+](=O)[O-])cc4)c3n2c1` [Compound 81], the EC50 [1] was 3160 nM and the CC50 at 3 days [2] was 13500 nM.
`CN(C)CCCOc1ccc2nc3c4ccccc4c(=O)n(-c4ccc([N+](=O)[O-])cc4)c3n2c1` [Compound 82] gave an EC50 [1] of 1120 nM and a CC50 at 3 days [2] of 8910 nM.
With `CN(C)/C=N/c1ccc2nc3c4ccccc4c(=O)n(-c4ccc(Cl)nc4)c3n2c1` [Compound 84, 6-(6-chloro-pyridin-3-yl)-9-[[(dimethylamino)-methylene]amino]-pyrido[2′,1′:2,3]imidazo[4,5-c]isoquinolin-5(6H)-one] the EC50 [1] was 6170 nM and the CC50 at 3 days [2] was 16600 nM.
In the case of `O=C(Nc1ccc2nc3c4ccccc4c(=O)n(-c4ccc([N+](=O)[O-])cc4)c3n2c1)C(F)(F)F` [Compound 90], the EC50 [1] is reported as 398 nM and the CC50 at 3 days [2] is reported as > 32400 nM.
In the case of `O=c1c2ccccc2c2nc3sccn3c2n1-c1ccc([N+](=O)[O-])cc1` [Compound 98, 6-(4-nitrophenyl)-thiazolo[2′,3′:2,3]imidazo[4,5-c]isoquinolin-5(6H)-one], the EC50 [1] is reported as 977 nM and the CC50 at 3 days [2] is reported as > 32400 nM.
For `O=c1c2cc(Br)ccc2c2nc3ccccn3c2n1-c1ccc([N+](=O)[O-])cc1` [Compound 101, 3-bromo-6-(4-nitrophenyl)-pyrido[2′,1′:2,3]imidazo[4,5-c]isoquinolin-5(6H)-one], the EC50 [1] was 2190 nM and the CC50 at 3 days [2] was > 100000 nM.
In the case of `O=c1c2sccc2c2nc3ccccn3c2n1-c1ccc([N+](=O)[O-])cc1` [Compound 103, 5-(4-nitrophenyl)-pyrido[2′,1′:2,3]imidazo[4,5-b]thieno[3,2-d]pyridin-4(5H)-one], the EC50 [1] is reported as 1000 nM and the CC50 at 3 days [2] is reported as > 32400 nM.
Work on `Cc1cccc2c(=O)n(-c3ccc([N+](=O)[O-])cc3)c3c(nc4ccc(O)cn43)c12` [Compound 110, 9-hydroxy-1-methyl-6-(4-nitrophenyl)-pyrido[2′,1′:2,3]imidazo[4,5-c]isoquinolin-5(6H)-one] yielded an EC50 [1] of 53.7 nM and a CC50 at 3 days [2] of 5370 nM.
With `CNc1ccc2nc3c4ccccc4c(=O)n(-c4ccc([N+](=O)[O-])cc4)c3n2n1` [Compound 114] the EC50 [1] was 245 nM and the CC50 at 3 days [2] was > 32400 nM.
Work on `O=c1c2ccccc2c2nc3ccc(NCCN4CCCC4)nn3c2n1-c1ccc([N+](=O)[O-])cc1` [Compound 115] yielded an EC50 [1] of 912 nM and a CC50 at 3 days [2] of 832 nM.
For `O=c1c2ccccc2c2nc3ccc(NCCCO)nn3c2n1-c1ccc([N+](=O)[O-])cc1` [Compound 118], the EC50 [1] was 646 nM and the CC50 at 3 days [2] was > 32400 nM.
`CN(C)CCCNc1ccc2nc3c4ccccc4c(=O)n(-c4ccc([N+](=O)[O-])cc4)c3n2n1` [Compound 120] showed an EC50 [1] of 631 nM and a CC50 at 3 days [2] of 1320 nM.
For `O=c1c2ccccc2c2nc3ccc(NCCO)nn3c2n1-c1ccc([N+](=O)[O-])cc1` [Compound 121, 9-[(2-hydroxyethyl)amino]-6-(4-nitrophenyl)-pyridazo[3′,2′:2,3]imidazo[4,5-c]isoquinolin-5(6H)-one], the EC50 [1] was 275 nM and the CC50 at 3 days [2] was 14800 nM.
`CN(C)CCNc1ccc2nc3c4ccccc4c(=O)n(-c4ccc([N+](=O)[O-])cc4)c3n2n1` [Compound 122] showed an EC50 [1] of 89.1 nM and a CC50 at 3 days [2] of 69.2 nM.
For `O=c1c2ccccc2c2nc3ccc(NCc4ccccc4)nn3c2n1-c1ccc([N+](=O)[O-])cc1` [Compound 125], the EC50 [1] was 5250 nM and the CC50 at 3 days [2] was > 20000 nM.
For `O=c1c2ccccc2c2nc3ccc(NCCO)nn3c2n1-c1ccc(Cl)nc1` [Compound 126], the EC50 [1] was 2140 nM and the CC50 at 3 days [2] was > 32400 nM.
Work on `CCNCCNc1ccc2nc3c4ccccc4c(=O)n(-c4ccc([N+](=O)[O-])cc4)c3n2n1` [Compound 128] yielded an EC50 [1] of 30.9 nM and a CC50 at 3 days [2] of 851 nM.
For `Nc1ccc2nc3c4ccccc4c(=O)n(-c4ccc([N+](=O)[O-])cc4)c3n2n1` [Compound 129, 9-amino-6-(4-nitrophenyl)-pyridazo-[3′,2′:2,3]imidazo[4,5-c]isoquinolin-5(6H)-one], the EC50 [1] was 166 nM and the CC50 at 3 days [2] was > 32400 nM.
With `O=c1c2ccccc2c2nc3ccc(NCCNCCO)nn3c2n1-c1ccc([N+](=O)[O-])cc1` [Compound 130] the EC50 [1] was 219 nM and the CC50 at 3 days [2] was 3550 nM.
